#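 1) Cells in 96-well plates. 2) Compound, 48 h, 5 concentrations. 3) Linear interpolation between surrounding doses. 4) Unreached endpoint = highest concentration. TGI: total growth inhibition.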
# Columns and labels:
# Experiment in all cases: growth of human tumour cells (NCI), 48 h
# SK-OV-3 ovarian = test system: SK-OV-3 ovarian
# COLO 205 colon = test system: COLO 205 colon
# SN12C renal = test system: SN12C renal
# RPMI-8226 leukemia = test system: RPMI-8226 leukemia
# HT29 colon = test system: HT29 colon
# OVCAR-8 ovarian = test system: OVCAR-8 ovarian
# EKVX NSCLC = test system: EKVX NSCLC
# KM12 colon = test system: KM12 colon
# K-562 leukemia = test system: K-562 leukemia
# TK-10 renal = test system: TK-10 renal
# T-47D breast = test system: T-47D breast
# SK-MEL-2 melanoma = test system: SK-MEL-2 melanoma
# MDA-N = test system: MDA-N
# HL-60(TB) leukemia = test system: HL-60(TB) leukemia
# 786-0 renal = test system: 786-0 renal
# OVCAR-4 ovarian = test system: OVCAR-4 ovarian
# LOX IMVI melanoma = test system: LOX IMVI melanoma
# SK-MEL-5 melanoma = test system: SK-MEL-5 melanoma
# NCI-H23 lung = test system: NCI-H23 lung
# IGROV1 ovarian = test system: IGROV1 ovarian
# HCT-15 colon = test system: HCT-15 colon
# DU-145 prostate = test system: DU-145 prostate
# HS 578T breast = test system: HS 578T breast
# A549 NSCLC = test system: A549 NSCLC
# UACC-62 melanoma = test system: UACC-62 melanoma
# SK-MEL-28 melanoma = test system: SK-MEL-28 melanoma
# OVCAR-3 ovarian = test system: OVCAR-3 ovarian
# HOP-92 NSCLC = test system: HOP-92 NSCLC
# ACHN renal = test system: ACHN renal
# SNB-75 CNS = test system: SNB-75 CNS
# SF-268 CNS = test system: SF-268 CNS
# NCI-H226 lung = test system: NCI-H226 lung
# MOLT-4 leukemia = test system: MOLT-4 leukemia
# U251 CNS = test system: U251 CNS
# SNB-19 CNS = test system: SNB-19 CNS
# MALME-3M melanoma = test system: MALME-3M melanoma
# SF-295 CNS = test system: SF-295 CNS
# BT-549 breast = test system: BT-549 breast
# M14 melanoma = test system: M14 melanoma
# CCRF-CEM leukemia = test system: CCRF-CEM leukemia
# HCC-2998 colon = test system: HCC-2998 colon
# UACC-257 melanoma = test system: UACC-257 melanoma
# HCT-116 colon = test system: HCT-116 colon
# PC-3 prostate = test system: PC-3 prostate
# NCI/ADR-RES ovarian = test system: NCI/ADR-RES ovarian
# OVCAR-5 ovarian = test system: OVCAR-5 ovarian
# A498 renal = test system: A498 renal
# MDA-MB-435 = test system: MDA-MB-435
# RXF 393 renal = test system: RXF 393 renal
# MDA-MB-231 breast = test system: MDA-MB-231 breast
# MCF7 breast = test system: MCF7 breast
# CAKI-1 renal = test system: CAKI-1 renal
# SW-620 colon = test system: SW-620 colon
# HOP-62 NSCLC = test system: HOP-62 NSCLC
# UO-31 renal = test system: UO-31 renal
# NCI-H460 lung = test system: NCI-H460 lung
compound,measurement,setting,value
O=C1/C(=C/c2ccc(O)c(CN3CCCCC3)c2)CCC/C1=C\c1ccc(O)c(CN2CCCCC2)c1,TGI,SK-OV-3 ovarian,22.4 µM
same,TGI,COLO 205 colon,10.4 µM
same,TGI,SN12C renal,59 µM
same,TGI,RPMI-8226 leukemia,35.8 µM
same,TGI,HT29 colon,3.7 µM
same,TGI,OVCAR-8 ovarian,29.8 µM
same,TGI,EKVX NSCLC,25.2 µM
same,TGI,KM12 colon,14.8 µM
same,TGI,K-562 leukemia,42.3 µM
same,TGI,TK-10 renal,21.1 µM
same,TGI,T-47D breast,35.8 µM
same,TGI,SK-MEL-2 melanoma,50.6 µM
same,TGI,MDA-N,20.6 µM
same,TGI,HL-60(TB) leukemia,11.5 µM
same,TGI,786-0 renal,17.5 µM
same,TGI,OVCAR-4 ovarian,33.2 µM
same,TGI,LOX IMVI melanoma,25.1 µM
same,TGI,SK-MEL-5 melanoma,27.1 µM
same,TGI,NCI-H23 lung,20.2 µM
same,TGI,IGROV1 ovarian,29.4 µM
same,TGI,HCT-15 colon,29.5 µM
same,TGI,DU-145 prostate,17.6 µM
same,TGI,HS 578T breast,83.8 µM
same,TGI,A549 NSCLC,53.5 µM
same,TGI,UACC-62 melanoma,38.2 µM
same,TGI,SK-MEL-28 melanoma,31.3 µM
same,TGI,OVCAR-3 ovarian,> 100 µM
same,TGI,HOP-92 NSCLC,12.3 µM
same,TGI,ACHN renal,19.5 µM
same,TGI,SNB-75 CNS,12.4 µM
same,TGI,SF-268 CNS,20.8 µM
same,TGI,NCI-H226 lung,48.2 µM
same,TGI,MOLT-4 leukemia,27 µM
same,TGI,U251 CNS,20.5 µM
same,TGI,SNB-19 CNS,17.7 µM
same,TGI,MALME-3M melanoma,28.7 µM
same,TGI,SF-295 CNS,16.3 µM
same,TGI,BT-549 breast,31.3 µM
same,TGI,M14 melanoma,44.5 µM
same,TGI,CCRF-CEM leukemia,17.7 µM
same,TGI,HCC-2998 colon,20.6 µM
same,TGI,UACC-257 melanoma,23.9 µM
same,TGI,HCT-116 colon,14.7 µM
same,TGI,PC-3 prostate,44.6 µM
same,TGI,NCI/ADR-RES ovarian,9.82 µM
same,TGI,OVCAR-5 ovarian,> 100 µM
same,TGI,A498 renal,28.9 µM
same,TGI,MDA-MB-435,18.2 µM
same,TGI,RXF 393 renal,15.5 µM
same,TGI,MDA-MB-231 breast,17.4 µM
same,TGI,MCF7 breast,15.5 µM
same,TGI,CAKI-1 renal,34.5 µM
same,TGI,SW-620 colon,29.1 µM
same,TGI,HOP-62 NSCLC,26.3 µM
same,TGI,UO-31 renal,22.5 µM
same,TGI,NCI-H460 lung,13.6 µM
